{"source": "patent US20190175646A1", "about": "“METHODS AND COMPOSITIONS RELATING TO THE TREATMENT OF BENIGN SKIN TUMORS” (THE GENERAL HOSPITAL CORPORATION D/B/A MASSACHUSETTS …, priority 2015, published 2019)", "test_system": "SK cells", "assay": "SK cell viability (Alamar blue absorbance assay)", "format": "cell-based, human", "conditions": "indicated concentrations, 48 hours", "procedure": "FIG. 1 depicts a graph in which SK cells were treated with DSF and CuCl2 (indicated concentrations) for 48 hours and relative cellular viability was measured using Alamar blue (absorbance based) assay. A443654 Akt inhibitor was used as a control.\nFIG. 2 depicts a graph in which SK cells and normal human keratinocytes were treated with DSF and CuCl2 (indicated concentrations) for 48 hours and relative cellular viability was measured using Alamar blue (absorbance based) assay. A443654 Akt inhibitor was used as a control.\nFIG. 4 depicts a graph of SK cell viability after treatment with DSF and/or Cu^2+. A443654 Akt inhibitor was used as a control.\nFIG. 5 depicts a graph of SK cell viability after treatment with DSF and/or Zn^2+. A443654 Akt inhibitor was used as a control.\nFIGS. 8 and 9 depict graphs of SK cell viability after treatment with pyrithione and/or Cu^2+. A443654 Akt inhibitor was used as a control. Cells from different donors were used for each experiment", "data": [{"compound": "COc1ccc(C2=N[C@@H](c3ccc(Cl)cc3)[C@@H](c3ccc(Cl)cc3)N2C(=O)N2CCNC(=O)C2)c(OC(C)C)c1", "note": "[nutlin-3a]", "values": [{"measurement": "effect on SK cell viability", "value": "impair SK viability"}]}]}
